Patent publication US10882860B2, “Treatment of osteoarthritis” (Samumed, LLC, priority 2015, dated 2021)
Marks after values point to notes of the source that are not given here.

Tests used:
[1] = Competitive slurry experiments between polymorph forms (thermodynamic stability); assay type: physicochemical; conditions: competitive slurry of mixed forms
Method: In order to find out the thermodynamic stability between the different forms, several competitive slurry experiments were carried out. Form 1, Form 2, Form 2*, Form 3, Form 4, Form 4*, Form 4**, Form 5, Form 7, Form 8, Form 9, Form 10, Form 11, Form 11*, and Form 13 (10 mg for each) was mixed and slurried in 2 mL of solvent at both RT and 50° C. The solids were slurried for 3-5 days and then analyzed by XRD.
In order to find out the thermodynamic stability between Form 13 and Form 9, several competitive slurry experiments were carried out. 15 mg of Form 1, Form 9 and Form 13 solid were mixed in 1 mL of toluene, IPAc, and n-butyl acetate, and slurried for 3 days at RT and 50° C.
The residual solid was analyzed by XRD.

[2] = system: rat models of osteoarthritis (ACLT and pMMx); test: Efficacy of suspension compositions compared to a solution composition in rat OA model; assay type: in vivo, rats
Method: The efficacy of suspension compositions of the compound of Formula (I) (Form 1) as compared to a solution composition of the compound of Formula (I) in rat models of osteoarthritis (OA) was determined using a solution (final IA dose of 3 μg solution) and 0.1 μg and 0.3 μg suspension compositions of the compound of Formula (I) (Form 1).
The rats were treated with final dose levels of either a 0.1 μg or 0.3 μg suspension or a 3 μg solution of the compound of Formula (I). Histology score of cartilage integrity in the knee was the readout.

[3] = system: moderate-to-severe symptomatic knee OA subjects; test: Phase 1 MRI and radiograph study (bone marrow edema, cartilage thickness, joint space width); assay type: in vivo, human; conditions: for Bone Marrow Edema [N(%)]: Baseline Diffuse, Week 12 Diffuse / Bone Marrow Edema [N(%)]: Baseline Diffuse, Week 12 Focal / Bone Marrow Edema [N(%)]: Baseline Diffuse, Week 12 None / Bone Marrow Edema [N(%)]: Baseline Focal, Week 12 Diffuse / Bone Marrow Edema [N(%)]: Baseline Focal, Week 12 Focal / Bone Marrow Edema [N(%)]: Baseline Focal, Week 12 None / Bone Marrow Edema [N(%)]: Baseline None, Week 12 Diffuse / Bone Marrow Edema [N(%)]: Baseline None, Week 12 Focal / Bone Marrow Edema [N(%)]: Baseline None, Week 12 None: MRI; for change from baseline in joint space width (radiograph): Week 24
Excerpt: To assess the safety and efficacy of the compound of Formula (I) (Form 1), magnetic resonance imaging (MM) was used. Safety evaluations included assessment of bone marrow edema by Mill. MM was used to document changes from baseline in total cartilage volume and thickness in the compartments of the target knee joint. Imaging results (safety and exploratory outcomes) in the Phase 1 study are described above.
Knee MRIs were obtained with a 16 channel knee coil on a 3.0T MRI machine using a standard diagnostic protocol (resolution 0.1-0.4 mm). MM scans were collected at the baseline visit (which could occur ≤28 days prior to study injection) and again at Weeks 12 and 24. The sponsor was unblinded after Week 12 for each cohort; site investigators remained blinded.
An exploratory analysis of change in imaging outcomes was conducted using repeated measures analysis of covariance (ANCOVA) adjusting for baseline in the Intention-to-Treat (ITT) population.
As a safety assessment, MRI scans were used to monitor the presence of focal or diffuse bone marrow edema (BME) in all subjects.
Average cartilage thickness over covered subchondral bone was reported for the following four compartments: medial femoral condyles, lateral femoral condyles, medial tibial plateaus, and lateral tibial plateaus.
FIG. 27 depicts the MRI of a knee joint. To determine average cartilage thickness, the cartilage thickness between the subchondral bone area (400 and 404) and the articular cartilage surface (402 and 406) was measured at numerous (˜400-2000) locations in both directions in the parts covered by cartilage (cAB) and averaged. Measurements were performed in three dimensions. Additionally, the average of the lowest 1% of cartilage thickness was also reported for all 4 compartments. The total for both average thickness and lowest thickness were derived by summing each of the 4 compartments' observations.
Radiographs of the target knee were taken during the screening period and at Week 24 to document change from baseline in joint space width (JSW). Table 52 depicts joint space width as measured by radiography for three dosing cohorts and a placebo group.

## CC(C)CC(=O)Nc1cncc(-c2ccc3[nH]nc(-c4nc5c(-c6cccc(F)c6)cncc5[nH]4)c3c2)c1 [compound of Formula (I)]
[1]; Acetone, 50° C.
  Form after 3 days; dry: Form 2*/Form 2*
  Form after 3 days; wet: Form 2*/Form 2*
  Form after 5 days; dry: Form 2*/Form 2*
  Form after 5 days; wet: Form 2*/Form 2*
[1]; Acetone, RT
  Form after 3 days; dry: Form 2*/Form 2*
  Form after 3 days; wet: Form 2*/Form 2*
  Form after 5 days; dry: Form 2*/Form 2*
  Form after 5 days; wet: Form 2*/Form 2*
[1]; EA, 50° C.
  Form after 3 days; dry: Form 4/Form 4
  Form after 3 days; wet: Form 4/Form 4
  Form after 5 days; dry: Form 4*/Form 4*
  Form after 5 days; wet: Form 4*/Form 4*
[1]; EA, RT
  Form after 3 days; dry: Form 4/Form 4
  Form after 3 days; wet: Form 4/Form 4
  Form after 5 days; dry: Form 4/Form 4
  Form after 5 days; wet: Form 4/Form 4
[1]; EtOH, 50° C.
  Form after 3 days; dry: Form 2*/Form 2*
  Form after 3 days; wet: Form 2*/Form 2*
  Form after 5 days; dry: Form 2*/Form 2*
  Form after 5 days; wet: Form 2*/Form 2*
[1]; EtOH, RT
  Form after 3 days; dry: Form 2*/Form 2*
  Form after 3 days; wet: Form 2*/Form 2*
  Form after 5 days; dry: Form 2*/Form 2*
  Form after 5 days; wet: Form 2*/Form 2*
[1]; MeOH, 50° C.
  Form after 3 days; dry: Form 2*/Form 2*
  Form after 3 days; wet: Form 2*/Form 2*
  Form after 5 days; dry: Form 2*/Form 2*
  Form after 5 days; wet: Form 2*/Form 2*
[1]; MeOH, RT
  Form after 3 days; dry: Form 2*/Form 2*
  Form after 3 days; wet: Form 2*/Form 2*
  Form after 5 days; dry: Form 2*/Form 2*
  Form after 5 days; wet: Form 2*/Form 2*
[1]; water, 50° C.
  Form after 3 days; dry: Form 13/Form 13
  Form after 3 days; wet: Form 13/Form 13
  Form after 5 days; dry: Form 13/Form 13
  Form after 5 days; wet: Form 13/Form 13
[1]; water, RT
  Form after 3 days; dry: Form 13/Form 13
  Form after 3 days; wet: Form 13/Form 13
  Form after 5 days; dry: Form l & Form 13
  Form after 5 days; wet: Form 13
[2]; 0.1 μg suspension, 3 months, did not reach statistical significance
  histology score of cartilage integrity in the knee (vs. vehicle): beneficial effect
[2]; 0.3 μg suspension, 3 months
  histology score of cartilage integrity in the knee (vs. vehicle): significant difference
[2]; 3 μg solution, 2 months, did not reach statistical significance
  histology score of cartilage integrity in the knee (vs. vehicle): beneficial effect
[3]; 0.03 mg cohort
  Bone Marrow Edema [N(%)]: Baseline Diffuse, Week 12 Diffuse: 1 (6%) N(%)
  Bone Marrow Edema [N(%)]: Baseline Diffuse, Week 12 Focal: 1 (6%) N(%)
  Bone Marrow Edema [N(%)]: Baseline Diffuse, Week 12 None: 0 N(%)
  Bone Marrow Edema [N(%)]: Baseline Focal, Week 12 Diffuse: 0 N(%)
  Bone Marrow Edema [N(%)]: Baseline Focal, Week 12 Focal: 4 (25%) N(%)
  Bone Marrow Edema [N(%)]: Baseline Focal, Week 12 None: 0 N(%)
  Bone Marrow Edema [N(%)]: Baseline None, Week 12 Diffuse: 0 N(%)
  Bone Marrow Edema [N(%)]: Baseline None, Week 12 Focal: 1 (6%) N(%)
  Bone Marrow Edema [N(%)]: Baseline None, Week 12 None: 9 (57%) N(%)
  change from baseline in joint space width (radiograph): no change
[3]; 0.03 mg cohort, N 15
  Joint space width by radiograph, Week 24 (mm) Actual [Mean (SD)]: 4.50 (1.72) mm
  Joint space width by radiograph, Week 24 (mm) Change from baseline [Mean (SD)]: 0.00 (0.69) mm
[3]; 0.03 mg cohort, N 16
  Mean cartilage thickness by MRI, Week 12 (mm) Actual [Mean (SD)]: 5.38 (1.19) mm
  Mean cartilage thickness by MRI, Week 12 (mm) Change from baseline [Mean (SD)]: −0.06 (0.39) mm
  Mean thinnest cartilage by MRI, Week 12 (mm) Actual [Mean (SD)]: 3.84 (1.57) mm
  Mean thinnest cartilage by MRI, Week 12 (mm) Change from baseline [Mean (SD)]: 0.11 (0.37) mm
[3]; 0.03 mg cohort, Week 12
  area of mean thinnest cartilage by MRI: possible trend towards increase
[3]; 0.07 mg cohort
  Bone Marrow Edema [N(%)]: Baseline Diffuse, Week 12 Diffuse: 0 N(%)
  Bone Marrow Edema [N(%)]: Baseline Diffuse, Week 12 Focal: 1 (6%) N(%)
  Bone Marrow Edema [N(%)]: Baseline Diffuse, Week 12 None: 0 N(%)
  Bone Marrow Edema [N(%)]: Baseline Focal, Week 12 Diffuse: 0 N(%)
  Bone Marrow Edema [N(%)]: Baseline Focal, Week 12 Focal: 1 (6%) N(%)
  Bone Marrow Edema [N(%)]: Baseline Focal, Week 12 None: 1 (6%) N(%)
  Bone Marrow Edema [N(%)]: Baseline None, Week 12 Diffuse: 0 N(%)
  Bone Marrow Edema [N(%)]: Baseline None, Week 12 Focal: 2 (13%) N(%)
  Bone Marrow Edema [N(%)]: Baseline None, Week 12 None: 11 (69%) N(%)
  change from baseline in joint space width (radiograph): increase
[3]; 0.07 mg cohort, N 14
  Joint space width by radiograph, Week 24 (mm) Actual [Mean (SD)]: 4.16 (1.64) mm
[3]; 0.07 mg cohort, N 14, p = 0.006 versus placebo
  Joint space width by radiograph, Week 24 (mm) Change from baseline [Mean (SD)]: 0.59 (0.66)* mm
[3]; 0.07 mg cohort, N 16
  Mean cartilage thickness by MRI, Week 12 (mm) Actual [Mean (SD)]: 5.37 (0.71) mm
  Mean cartilage thickness by MRI, Week 12 (mm) Change from baseline [Mean (SD)]: −0.02 (0.25) mm
  Mean thinnest cartilage by MRI, Week 12 (mm) Actual [Mean (SD)]: 3.88 (1.39) mm
  Mean thinnest cartilage by MRI, Week 12 (mm) Change from baseline [Mean (SD)]: 0.10 (0.55) mm
[3]; 0.07 mg cohort, Week 12
  area of mean thinnest cartilage by MRI: possible trend towards increase
[3]; 0.23 mg cohort
  Bone Marrow Edema [N(%)]: Baseline Diffuse, Week 12 Diffuse: 2 (13%) N(%)
  Bone Marrow Edema [N(%)]: Baseline Diffuse, Week 12 Focal: 0 N(%)
  Bone Marrow Edema [N(%)]: Baseline Diffuse, Week 12 None: 0 N(%)
  Bone Marrow Edema [N(%)]: Baseline Focal, Week 12 Diffuse: 0 N(%)
  Bone Marrow Edema [N(%)]: Baseline Focal, Week 12 Focal: 8 (50%) N(%)
  Bone Marrow Edema [N(%)]: Baseline Focal, Week 12 None: 1 (6%) N(%)
  Bone Marrow Edema [N(%)]: Baseline None, Week 12 Diffuse: 0 N(%)
  Bone Marrow Edema [N(%)]: Baseline None, Week 12 Focal: 1 (6%) N(%)
  Bone Marrow Edema [N(%)]: Baseline None, Week 12 None: 4 (25%) N(%)
  change from baseline in joint space width (radiograph): decrease
[3]; 0.23 mg cohort, N 15
  Mean cartilage thickness by MRI, Week 12 (mm) Actual [Mean (SD)]: 5.32 (1.03) mm
  Mean cartilage thickness by MRI, Week 12 (mm) Change from baseline [Mean (SD)]: −0.04 (0.24) mm
  Mean thinnest cartilage by MRI, Week 12 (mm) Actual [Mean (SD)]: 3.01 (1.27) mm
  Mean thinnest cartilage by MRI, Week 12 (mm) Change from baseline [Mean (SD)]: −0.13 (0.30) mm
[3]; 0.23 mg cohort, N 16
  Joint space width by radiograph, Week 24 (mm) Actual [Mean (SD)]: 3.47 (1.68) mm
  Joint space width by radiograph, Week 24 (mm) Change from baseline [Mean (SD)]: −0.15 (1.07) mm
[3]; 0.23 mg dose vs 0.03 mg and 0.07 mg doses
  exploratory imaging results, dose comparison: less effective
[3]; single IA injection, interim
  effect on bone marrow edema compared to Placebo: no appreciable effect
[3]; treated subjects, Week 12
  mean cartilage thickness by MRI: no substantial degradation
[3]; treatment groups, baseline to Week 12
  subjects with improved BME results (focal to none and diffuse to focal): 4
